Measurements published in US11207312B2, “Metallo-beta-lactamase inhibitors and methods of use thereof” (priority 2017, dated 2021).
In brackets after ≈: the same amount, converted by molar mass.

How the values were obtained:
[1] = tested on: efflux- MB5890 Trans pFlp-Vim2 plasmid; experiment: microbe, parasite or virus in culture; assay type: cell-based, Pseudomonas aeruginosa
[2] = tested on: MB9861 (Efflux+ MB5919 Trans pFlp-Vim1 plasmid); experiment: microbe, parasite or virus in culture; assay type: cell-based, Pseudomonas aeruginosa
[3] = tested on: efflux+ MB5919 Trans pFlp-Vim2 plasmid; experiment: microbe, parasite or virus in culture; assay type: cell-based, Pseudomonas aeruginosa
[4] = tested on: MB9862 (efflux- MB5890 trans pFlp-Vim1); experiment: microbe, parasite or virus in culture; assay type: cell-based, Pseudomonas aeruginosa
MB5919 (OprD+, efflux+) = experiment: microbe, parasite or virus in culture; assay type: cell-based, Pseudomonas aeruginosa
Description: (§1) The strain background is Pseudomonas aeruginosa PAO1. A wild-type (M135919) and an isogenic strain in which multiple efflux pumps have been disrupted genetically were used. The MBL IMP-1, obtained from a clinical isolate was introduced into the strain pair by the following process:
(§2) The plasmid DNA was transformed into parental MB5919 (oprD+, efflux+, inducible AmpC) and MB5890 (oprD+, efflux−, inducible AmpC) isogenic strains by electroporation.
(§3) Minimum inhibitory concentrations of sentinel antibiotics were performed to quality control the new strains.

[5] = tested on: MB9798 (efflux+ MB5919 Trans IMP1 plasmid); experiment: microbe, parasite or virus in culture; assay type: cell-based, Pseudomonas aeruginosa
Description: as §1, §2, §3

MB5890 (OprD+, efflux-) = experiment: microbe, parasite or virus in culture; assay type: cell-based, Pseudomonas aeruginosa
Description: as §1, §2, §3

[6] = tested on: MB9799 (efflux- MB5890 Trans IMP1 plasmid); experiment: microbe, parasite or virus in culture; assay type: cell-based, Pseudomonas aeruginosa
Description: as §1, §2, §3

NDM-1 = NDM-1 (Klebsiella pneumoniae, UniProt C7C422); experiment: biochemical; assay type: biochemical; details: CCF2-FA fluorescence assay, 2 hours at 25° C.
Sequence of NDM-1 (C7C422 whole entry, looked up, species assumed): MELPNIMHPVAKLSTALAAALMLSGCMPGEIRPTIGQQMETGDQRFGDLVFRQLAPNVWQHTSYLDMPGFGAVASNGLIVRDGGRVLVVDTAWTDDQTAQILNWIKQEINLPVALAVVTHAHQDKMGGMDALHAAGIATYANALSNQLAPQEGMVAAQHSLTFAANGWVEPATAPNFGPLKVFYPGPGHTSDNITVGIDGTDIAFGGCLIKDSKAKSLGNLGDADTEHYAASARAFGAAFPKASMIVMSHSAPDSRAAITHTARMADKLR
Procedure, shortened: (§4)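 Each enzyme (final 1 pM NDM-1, 2 pM IMP-1, 30 pM VIM-1) was incubated with test inhibitor (20 μM to 0.00063 μM) and 1.25 μM CCF2-FA for 2 hours at 25° C in zinc-supplemented phosphate buffer, pH 7. Fluorescence at 460 nm was then read and IC50 fitted with four parameters.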

[7] = tested on: P. aeruginosa MB9799 (efflux-, IMP-1 plasmid); assay type: cell-based, Pseudomonas aeruginosa; details: efflux − (MB9799) strain; imipenem at 2 μg/mL; in the presence of a class A, C, D serine β-lactamase inhibitor closely related to relebactam
Procedure, shortened: (§5)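 PAO1-derived isogenic pair (oprD+, inducible AmpC), efflux+ MB5919 or efflux− MB5890 parent, carrying an electroporated IMP-1 plasmid from a clinical isolate. Microbroth MIC with fixed imipenem and/or ceftazidime (usually CLSI breakpoint) plus fixed class A/C inhibitor; MBL inhibitor serially titrated, concentration restoring susceptibility recorded.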

IMP-1 = IMP-1 (Serratia marcescens, UniProt P52699); experiment: biochemical; details: CCF2-FA fluorescence assay, 2 hours at 25° C.; read-out: IMP1 IC50
Sequence of IMP-1 (P52699 whole entry, looked up, species assumed): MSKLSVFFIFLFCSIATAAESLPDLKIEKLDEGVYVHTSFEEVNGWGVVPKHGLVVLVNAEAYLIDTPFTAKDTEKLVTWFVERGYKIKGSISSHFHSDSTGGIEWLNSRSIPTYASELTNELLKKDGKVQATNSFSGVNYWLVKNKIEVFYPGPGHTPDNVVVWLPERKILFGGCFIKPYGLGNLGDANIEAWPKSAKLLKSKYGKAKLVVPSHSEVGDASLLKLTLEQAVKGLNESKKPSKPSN
Procedure, shortened: as §4

VIM-1 = VIM-1 (Pseudomonas aeruginosa (strain ATCC 15692 / DSM 22644 / CIP 104116 / JCM 14847 / LMG 12228 / 1C / PRS 101 / PAO1), UniProt A0A0F7KYQ8); experiment: biochemical; details: CCF2-FA fluorescence assay, 2 hours at 25° C.; read-out: VIM1 IC50
Procedure, shortened: as §4

[8] = tested on: P. aeruginosa MB9798 (efflux+, IMP-1 plasmid); details: for MB9798 MITC95 P. aeruginosa uM Efflux WT: efflux + (MB9798) strain, imipenem at 2 μg/mL, in the presence of a class A, C, D serine β-lactamase inhibitor closely related to relebactam; for Efflux ratio: fold difference between efflux+ (MB9798) and efflux− (MB9799) strains
Procedure, shortened: as §5

[9] = tested on: Escherichia coli expressing NDM-1 (CLB30016); assay type: cell-based; details: with imipenem 1 μg/ml; 95% inhibition of bacterial growth
Procedure, shortened: (§6)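 Imipenem 1 μg/ml + inhibitor titration in cation-adjusted MHB (1.1× stock medium); overnight-cultured colonies suspended in saline, diluted 1:100. 35 °C, 22–24 h; absorbance read. MITC95 = lowest compound conc giving 95% growth inhibition.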

[10] = tested on: Klebsiella pneumoniae expressing VIM-1 (IHMA599644); assay type: cell-based; details: with imipenem 1 μg/ml; 95% inhibition of bacterial growth
Procedure, shortened: as §6

[11] = tested on: Serratia marcescens expressing IMP-1 (CL5741); assay type: cell-based; details: with imipenem 1 μg/ml; 95% inhibition of bacterial growth
Procedure, shortened: as §6

VIM-2 = VIM-2 (Escherichia coli, UniProt Q5U7L7); experiment: biochemical; details: CCF2-FA fluorescence assay; read-out: VIM2 IC50
[12] = OprD+, efflux−, MB5890 Trans pFlp-Vim2 plasmid
[13] = MB9861, OprD+, Efflux+, MB5919 Trans pFlp-Vim1 plasmid
[14] = OprD+, efflux+, MB5919 Trans pFlp-Vim2 plasmid
[15] = MB9862, OprD+, efflux−, MB5890 trans pFlp-Vim1
[16] = MB9798, OprD+, efflux+, MB5919 Trans IMP1 plasmid (CL 5673)
[17] = MB9799, OprD+, efflux−, MB5890 Trans IMP1 plasmid (CL 5673)

Row | Compound | IC50 (NDM-1) [nM] | MB9799 MITC95 P. aeruginosa uM Efflux Mutant [7] [µM] | IC50 (IMP-1) [nM] | IC50 (VIM-1) [nM] | MB9798 MITC95 P. aeruginosa uM Efflux WT [8] [µM] | Efflux ratio [8] | CLB30016 E. coli MITC95 NDM [9] [µM] | IHMA599644 K. pneumoniae MITC95 VIM [10] [µM] | CL5741 S. marcescens MITC95 IMP [11] [µM] | IC50 (VIM-2) [nM] | further results
1 | O=C(N[C@H](CO)[C@H](O)c1ccc([N+](=O)[O-])cc1)C(Cl)Cl [Chloramphenicol, chloramphenicol] |  |  |  |  |  |  |  |  |  |  | MIC ([1]; Pseudomonas aeruginosa): 1 mg/L (≈ 3.09 µM); MIC ([2]; Pseudomonas aeruginosa): > 64 mg/L; MIC ([3]; Pseudomonas aeruginosa): > 64 mg/L; MIC ([4]; Pseudomonas aeruginosa): 2 mg/L (≈ 6.19 µM); MIC (MB5919 (OprD+, efflux+); Pseudomonas aeruginosa): > 64 mg/L; MIC ([5]; Pseudomonas aeruginosa): > 64 mg/L; MIC (MB5890 (OprD+, efflux-); Pseudomonas aeruginosa): 1 mg/L (≈ 3.09 µM); MIC ([6]; Pseudomonas aeruginosa): 1 mg/L (≈ 3.09 µM)
2 | CC[C@H]1OC(=O)[C@H](C)[C@@H](O[C@H]2C[C@@](C)(OC)[C@@H](O)[C@H](C)O2)[C@H](C)[C@@H](O[C@@H]2O[C@H](C)C[C@H](N(C)C)[C@H]2O)[C@](C)(O)C[C@@H](C)CN(C)[C@H](C)[C@@H](O)[C@]1(C)O [Azithromycin] |  |  |  |  |  |  |  |  |  |  | MIC ([1]; Pseudomonas aeruginosa): 1 mg/L (≈ 1.34 µM); MIC ([2]; Pseudomonas aeruginosa): 32 mg/L (≈ 42.7 µM); MIC ([3]; Pseudomonas aeruginosa): 32 mg/L (≈ 42.7 µM); MIC ([4]; Pseudomonas aeruginosa): 1 mg/L (≈ 1.34 µM); MIC (MB5919 (OprD+, efflux+); Pseudomonas aeruginosa): 16 mg/L (≈ 21.4 µM); MIC ([5]; Pseudomonas aeruginosa): 2 mg/L (≈ 2.67 µM); MIC (MB5890 (OprD+, efflux-); Pseudomonas aeruginosa): 1 mg/L (≈ 1.34 µM); MIC ([6]; Pseudomonas aeruginosa): 2 mg/L (≈ 2.67 µM)
3 | CC(C)(O/N=C(\C(=O)N[C@@H]1C(=O)N2C(C(=O)[O-])=C(C[n+]3ccccc3)CS[C@H]12)c1csc(N)n1)C(=O)O [CAZ, ceftazidime] |  |  |  |  |  |  |  |  |  |  | MIC [1, 12]: 64 mg/L (≈ 117 µM); MIC [2, 13]: >256 mg/L; MIC [3, 14]: 128 mg/L (≈ 234 µM); MIC [4, 15]: >256 mg/L; MIC (MB5919 (OprD+, efflux+); MB5919, OprD+, efflux+): 1 mg/L (≈ 1.83 µM); MIC [5, 16]: 256 mg/L (≈ 468 µM); MIC (MB5890 (OprD+, efflux-); MB5890, OprD+, efflux−): 0.5 mg/L (≈ 0.915 µM); MIC [6, 17]: 256 mg/L (≈ 468 µM)
4 | CCN1CCN(C(=O)N[C@@H](C(=O)N[C@@H]2C(=O)N3[C@@H]2SC(C)(C)[C@@H]3C(=O)O)c2ccccc2)C(=O)C1=O [Pipercillin, piperacillin] |  |  |  |  |  |  |  |  |  |  | MIC [1, 12]: 128 mg/L (≈ 247 µM); MIC [2, 13]: >256 mg/L; MIC [3, 14]: >256 mg/L; MIC [4, 15]: 128 mg/L (≈ 247 µM); MIC (MB5919 (OprD+, efflux+); MB5919, OprD+, efflux+): 2 mg/L (≈ 3.86 µM); MIC [5, 16]: 4 mg/L (≈ 7.73 µM); MIC (MB5890 (OprD+, efflux-); MB5890, OprD+, efflux−): 1 mg/L (≈ 1.93 µM); MIC [6, 17]: 4 mg/L (≈ 7.73 µM)
5 | C[C@@H](O)[C@H]1C(=O)N2C(C(=O)O)=C(S[C@@H]3CN[C@H](C(=O)N(C)C)C3)[C@H](C)[C@H]12 [Meropenem, meropenem] |  |  |  |  |  |  |  |  |  |  | MIC [1, 12]: 32 mg/L (≈ 83.4 µM); MIC [2, 13]: >64 mg/L; MIC [3, 14]: >64 mg/L; MIC [4, 15]: 64 mg/L (≈ 167 µM); MIC (MB5919 (OprD+, efflux+); MB5919, OprD+, efflux+): 2 mg/L (≈ 5.22 µM); MIC [5, 16]: >64 mg/L; MIC (MB5890 (OprD+, efflux-); MB5890, OprD+, efflux−): 0.5 mg/L (≈ 1.3 µM); MIC [6, 17]: 64 mg/L (≈ 167 µM)
6 | NCC1CCN(c2ccc(S(=O)(=O)C[C@H](O)CN)c(S(N)(=O)=O)c2-c2nn[nH]n2)CC1 [Example 128, (R)-6-((3-amino-2-hydroxypropyl)sulfonyl)-3-(4-(aminomethyl)piperidin-1-yl)-2-(2H-tetrazol-5-yl)benzenesulfonamide] | 8.71 | 0.39 | 3.65 | 0.94 | 0.78 | 2.00 | 0.39 | 0.78 | 0.78 | 13.3 | 
7 | NC[C@@H](O)CNS(=O)(=O)c1ccc(N2CC[C@H](CN)[C@H](O)C2)c(-c2nn[nH]n2)c1S(N)(=O)=O [Example 9, N^1—((R)-3-amino-2-hydroxypropyl)-4-(cis-4-(aminomethyl)-3-hydroxypiperidin-1-yl)-3-(2H-tetrazol-5-yl)benzene-1,2-disulfonamide] | 3.46 | 0.78 | 15.5 | 0.26 | 1.56 | 2.00 | 0.39 | 1.56 | 0.78 | 6.41 | 
8 | NC(=O)C1CCN(c2ccc(S(=O)(=O)N[C@@H]3CCNC3)c(S(N)(=O)=O)c2-c2nnn[nH]2)C1 (stereo partly drawn) [Example 92, 1-{4-[(3R)-pyrrolidin-3-ylsulfamoyl]-3-sulfamoyl-2-(1H-tetrazol-5-yl)phenyl}pyrrolidine-3-carboxamide] | 0.38 | 1.56 | 0.31 | 0.3 | 1.56 | 1.00 | 0.78 | 3.13 | 1.56 | 0.74 | 
9 | NC[C@H](N)CNS(=O)(=O)c1ccc(N2CCC(CO)CC2)c(-c2nnn[nH]2)c1S(N)(=O)=O [Example 44, (S)-N1-(2,3-diaminopropyl)-4-(4-(hydroxymethyl)piperidin-1-yl)-3-(1H-tetrazol-5-yl)benzene-1,2-disulfonamide] | 0.36 | 1.56 | 0.56 | 0.06 | 3.13 | 2.00 | 3.13 | 6.25 | 3.13 | 0.63 | 
10 | NS(=O)(=O)c1c(S(=O)(=O)N[C@@H]2CCNC2)ccc(N2CCC(Oc3ccccn3)CC2)c1-c1nnn[nH]1 [Example 110, 4-[4-(pyridin-2-yloxy)piperidin-1-yl]-N1-[(3R)-pyrrolidin-3-yl]-3-(1H-tetrazol-5-yl)benzene-1,2-disulfonamide] | 0.06 | 1.56 | 0.1 | 0.12 | 50.00 | 31.99 | 3.13 | 6.25 | 3.13 | 0.47 | 
11 | NCC(CN)NS(=O)(=O)c1ccc(N2CCC(CO)CC2)c(-c2nnn[nH]2)c1S(N)(=O)=O [Example 45, N1-(1,3-diaminopropan-2-yl)-4-(4-(hydroxymethyl)piperidin-1-yl)-3-(1H-tetrazol-5-yl)benzene-1,2-disulfonamide] | 0.27 | 1.56 | 0.52 | 0.23 | 1.56 | 1.00 | 1.56 | 3.13 | 3.13 | 0.74 | 
12 | C[C@H](CN)NS(=O)(=O)c1ccc(N2CCC(CO)CC2)c(-c2nnn[nH]2)c1S(N)(=O)=O [Example 46, (R)-N1-(1-aminopropan-2-yl)-4-(4-(hydroxymethyl)piperidin-1-yl)-3-(1H-tetrazol-5-yl)benzene-1,2-disulfonamide] | 0.06 | 1.56 | 0.12 | 0.08 | 1.56 | 1.00 | 3.13 | 6.25 | 1.56 | 0.32 | 
